Test results published in patent publication US20240317827A1, “LINEAR PEPTIDES INHIBITING CK2-MEDIATED PHOSPHORYLATION AND COMPOSITIONS COMPRISING SAME” (CENTRO DE INGENIERÍA GENÉTICA Y BIOTECNOLOGÍA, priority 2021, published 2024).
Where a SMILES comes first, the peptide text is derived from it. [ ]: non-standard residue; d: D form. βAla = NCCC(=O)O

T1: E7 oncoprotein of HPV-16 expressed in Escherichia coli as a fusion protein to Glutathione S-Transferase (Human Papillomavirus (HPV)-16, UniProt P03129 1-98)
T1 sequence: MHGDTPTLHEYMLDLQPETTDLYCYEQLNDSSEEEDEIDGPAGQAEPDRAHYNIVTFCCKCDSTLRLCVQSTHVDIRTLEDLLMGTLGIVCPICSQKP


What follows are molecules tested against T2, CK2-mediated phosphorylation of the HPV-16 E7 oncoprotein (Human papillomavirus type 16, UniProt P03129) (assay: in vitro phosphorylation reaction, E7 oncoprotein (GST fusion) as substrate). Settings: procedure of Example 2.
T2 construct: Glutathione S-Transferase (GST); made in house; host or cells: Escherichia coli
Type: biochemical
Procedure: The assay to measure the effect of these peptides on the CK2-mediated phosphorylation of the HPV-16 E7 oncoprotein, was based on an in vitro phosphorylation reaction, where the E7 oncoprotein of HPV-16 expressed in Escherichia coli was used as substratum. This oncoprotein was obtained as a fusion protein to Glutathione S-Transferase. The assay was performed according to the procedure previously described. (Perea S. E., et al., 2004, Cancer Res., 64: 7127-7129). The results are shown in FIG. 1, and indicate that the peptides identified as SEQ ID NO: 1-SEQ ID NO: 9 are capable of inhibiting CK2-mediated phosphorylation of the E7 protein of HPV-16.

Which phosphorylation inhibition does the source give for RKRSWYWP [D15P106] here?
Its phosphorylation inhibition is 82%.

Which phosphorylation inhibition does the source give for RKRSRYWP [D14P165] here?
The phosphorylation inhibition was 85%.

RKRWRYWP [D15P105] was tested. Which phosphorylation inhibition did it give?
The phosphorylation inhibition was 87%.

Each molecule was assayed on NCI-H125 cell line (non-small cell lung cancer) (assay: cell proliferation assay, NCI-H125 line). Settings: NCI-H125, Table 5; read-out: IC50.
Type: cell-based
Procedure: The evaluation of the antiproliferative activity of polypeptides F11P13-F11P21 (SEQ ID NO: 12-SEQ ID NO: 20) was performed on the NCI-H125 cell line. […] The antiproliferative effect of the CIGB-300 peptide has been widely characterized in this line (Cirigliano S. M., et al., 2017, Cancer Cell International, 17, 42), therefore, it was selected as a positive control. Tat peptide was used as a negative control. The polypeptides were evaluated at the concentrations of 25, 50, 100 and 200 μM. The cell proliferation assay was performed by a previously described procedure (Perera Y., et al., 2012, J. Pept. Sci, 18 (4):215-23).
The 24 polypeptides identified as SEQ ID NO: 21-SEQ ID NO: 44 maintained the ability to inhibit the phosphorylation of the E7 protein of HPV-16, mediated by CK2, since phosphorylation inhibition values between 60-85% were obtained. […] Evaluation of the antiproliferative activity of synthetic polypeptides generated by positional scanning of Trp (SEQ ID NO: 21-SEQ ID NO: 44) was performed on the NCI-H125 cell line. The test was performed by the procedure previously described. (Perera Y., et al., 2012, J. Pept. Sci, 18 (4): 215-23). Precursor polypeptides (F11P19, F11P20, F11P21) and peptide CIGB-300 were included as positive controls. The polypeptides were evaluated at the concentrations of 12.5; 25; fifty; 100 and 200 μM.
The evaluation of the antiproliferative activity of synthetic polypeptides A15P35, A15P36 and A15P37 (SEQ ID NO: 46-SEQ ID NO: 48) was performed on the NCI-H125, AsPC-1, PanC-1 (pancreatic carcinoma) and OCI-AML3 (acute myeloid leukemia-3) cell lines. The test was carried out according to the procedure previously described (Perera Y, et al., 2012, J. Pept. Sci, 18 (4):215-23). […] The polypeptides A15P35, A15P36 and A15P37 were able to produce a dose-dependent effect on the proliferation of NCI-H125 cells.
Antiproliferative assays were performed on the NCI-H125, Hep2C (laryngeal carcinoma) cell lines, and on two bladder cancer lines (MGH-U3 and MGH-U4). The test was carried out according to the procedure previously described (Perera Y., et al, 2012, Pept. Sci, 18 (4):215-23).

For `N=C(N)NCCC[C@H](NC(=O)CN)C(=O)N[C@@H](CCCCN)C(=O)N[C@@H](CCCCN)C(=O)N[C@@H](CCCNC(=N)N)C(=O)N[C@@H](CCCNC(=N)N)C(=O)N[C@@H](CCC(N)=O)C(=O)N[C@@H](CCCNC(=N)N)C(=O)N[C@@H](CCCNC(=N)N)C(=O)N[C@@H](CCCNC(=N)N)C(=O)N1CCC[C@H]1C(=O)N1CCC[C@H]1C(=O)N[C@@H](CCC(N)=O)C(=O)NCCC(=O)NCC(=O)N[C@@H](Cc1ccc(O)cc1)C(=O)N[C@@H](CCCNC(=N)N)C(=O)N[C@@H](Cc1ccc(O)cc1)C(=O)N[C@@H](CCCCN)C(=O)N[C@@H](CCCNC(=N)N)C(=O)N[C@@H](Cc1c[nH]c2ccccc12)C(=O)N1CCC[C@H]1C(N)=O` [A14P33, GRKKRRQRRRPPQ-βA-GYRYKRWP] (H-GRKKRRQRRRPPQ[βAla]GYRYKRWP-NH2; N-terminus and C-terminus assumed), which IC50 is on record?
Its IC50 is 124 µM.

Which IC50 does the source give for `CC(C)C[C@H](NC(=O)[C@H](CCCNC(=N)N)NC(=O)[C@H](CCCNC(=N)N)NC(=O)[C@H](CCCCN)NC(=O)[C@H](CCCCN)NC(=O)[C@@H](NC(=O)CCNC(=O)[C@H](CCC(N)=O)NC(=O)[C@@H]1CCCN1C(=O)[C@@H]1CCCN1C(=O)[C@H](CCCNC(=N)N)NC(=O)[C@H](CCCNC(=N)N)NC(=O)[C@H](CCCNC(=N)N)NC(=O)[C@H](CCC(N)=O)NC(=O)[C@H](CCCNC(=N)N)NC(=O)[C@H](CCCNC(=N)N)NC(=O)[C@H](CCCCN)NC(=O)[C@H](CCCCN)NC(=O)[C@H](CCCNC(=N)N)NC(=O)CN)C(C)C)C(=O)N[C@@H](Cc1c[nH]c2ccccc12)C(=O)N1CCC[C@H]1C(N)=O` [A14P59, GRKKRRQRRRPPQ-βA-VKKRRLWP] (H-GRKKRRQRRRPPQ[βAla]VKKRRLWP-NH2; N-terminus and C-terminus assumed) here?
The IC50 was 140 µM.

With `N=C(N)NCCC[C@H](NC(=O)CN)C(=O)N[C@@H](CCCCN)C(=O)N[C@@H](CCCCN)C(=O)N[C@@H](CCCNC(=N)N)C(=O)N[C@@H](CCCNC(=N)N)C(=O)N[C@@H](CCC(N)=O)C(=O)N[C@@H](CCCNC(=N)N)C(=O)N[C@@H](CCCNC(=N)N)C(=O)N[C@@H](CCCNC(=N)N)C(=O)N1CCC[C@H]1C(=O)N1CCC[C@H]1C(=O)N[C@@H](CCC(N)=O)C(=O)NCCC(=O)NCC(=O)N[C@@H](Cc1ccc(O)cc1)C(=O)N[C@@H](CCCNC(=N)N)C(=O)N[C@@H](Cc1ccc(O)cc1)C(=O)N[C@@H](Cc1c[nH]c2ccccc12)C(=O)N[C@@H](CCCNC(=N)N)C(=O)N[C@@H](CC(=O)O)C(=O)N1CCC[C@H]1C(N)=O` [A14P31, GRKKRRQRRRPPQ-βA-GYRYWRDP] (H-GRKKRRQRRRPPQ[βAla]GYRYWRDP-NH2; N-terminus and C-terminus assumed) as the molecule, how does the IC50 read?
The IC50 was 135 µM.

With `N=C(N)NCCC[C@H](NC(=O)CN)C(=O)N[C@@H](CCCCN)C(=O)N[C@@H](CCCCN)C(=O)N[C@@H](CCCNC(=N)N)C(=O)N[C@@H](CCCNC(=N)N)C(=O)N[C@@H](CCC(N)=O)C(=O)N[C@@H](CCCNC(=N)N)C(=O)N[C@@H](CCCNC(=N)N)C(=O)N[C@@H](CCCNC(=N)N)C(=O)N1CCC[C@H]1C(=O)N1CCC[C@H]1C(=O)N[C@@H](CCC(N)=O)C(=O)NCCC(=O)N[C@@H](Cc1c[nH]c2ccccc12)C(=O)N[C@@H](Cc1ccc(O)cc1)C(=O)N[C@@H](CCCNC(=N)N)C(=O)N[C@@H](Cc1ccc(O)cc1)C(=O)N[C@@H](CCCCN)C(=O)N[C@@H](CCCNC(=N)N)C(=O)N[C@@H](CC(=O)O)C(=O)N1CCC[C@H]1C(N)=O` [A14P27, GRKKRRQRRRPPQ-βA-WYRYKRDP] (H-GRKKRRQRRRPPQ[βAla]WYRYKRDP-NH2; N-terminus and C-terminus assumed) as the molecule, how does the IC50 read?
The IC50 was 165 µM.

For `N=C(N)NCCC[C@H](NC(=O)CN)C(=O)N[C@@H](CCCCN)C(=O)N[C@@H](CCCCN)C(=O)N[C@@H](CCCNC(=N)N)C(=O)N[C@@H](CCCNC(=N)N)C(=O)N[C@@H](CCC(N)=O)C(=O)N[C@@H](CCCNC(=N)N)C(=O)N[C@@H](CCCNC(=N)N)C(=O)N[C@@H](CCCNC(=N)N)C(=O)N1CCC[C@H]1C(=O)N1CCC[C@H]1C(=O)N[C@@H](CCC(N)=O)C(=O)NCCC(=O)N[C@@H](CCCNC(=N)N)C(=O)N[C@@H](CCCCN)C(=O)N[C@@H](CCCNC(=N)N)C(=O)N[C@@H](Cc1c[nH]c2ccccc12)C(=O)N[C@@H](CCCNC(=N)N)C(=O)N[C@@H](Cc1ccc(O)cc1)C(=O)N[C@@H](CC(=O)O)C(=O)N1CCC[C@H]1C(N)=O` [A14P43, GRKKRRQRRRPPQ-βA-RKRWRYDP] (H-GRKKRRQRRRPPQ[βAla]RKRWRYDP-NH2; N-terminus and C-terminus assumed), which IC50 is on record?
Its IC50 is 107 µM.

Same assay, conditions: NCI-H125; read-out: IC50 (dose-effect curves)

How did the IC50 turn out when `N=C(N)NCCC[C@H](NC(=O)CN)C(=O)N[C@@H](CCCCN)C(=O)N[C@@H](CCCCN)C(=O)N[C@@H](CCCNC(=N)N)C(=O)N[C@@H](CCCNC(=N)N)C(=O)N[C@@H](CCC(N)=O)C(=O)N[C@@H](CCCNC(=N)N)C(=O)N[C@@H](CCCNC(=N)N)C(=O)N[C@@H](CCCNC(=N)N)C(=O)N1CCC[C@H]1C(=O)N1CCC[C@H]1C(=O)N[C@@H](CCC(N)=O)C(=O)NCCC(=O)N[C@@H](CCCNC(=N)N)C(=O)N[C@@H](CCCCN)C(=O)N[C@@H](CCCNC(=N)N)C(=O)N[C@@H](CO)C(=O)N[C@@H](CCCNC(=N)N)C(=O)N[C@@H](Cc1ccc(O)cc1)C(=O)N[C@@H](CC(=O)O)C(=O)N1CCC[C@H]1C(N)=O` [F11P19, GRKKRRQRRRPPQ-βA-RKRSRYDP] (H-GRKKRRQRRRPPQ[βAla]RKRSRYDP-NH2; N-terminus and C-terminus assumed) was run?
Its IC50 is 336 µM.

For `CC(C)C[C@H](NC(=O)[C@H](CCCNC(=N)N)NC(=O)[C@H](CCCNC(=N)N)NC(=O)[C@H](CCCCN)NC(=O)[C@H](CCCCN)NC(=O)[C@@H](NC(=O)CCNC(=O)[C@H](CCC(N)=O)NC(=O)[C@@H]1CCCN1C(=O)[C@@H]1CCCN1C(=O)[C@H](CCCNC(=N)N)NC(=O)[C@H](CCCNC(=N)N)NC(=O)[C@H](CCCNC(=N)N)NC(=O)[C@H](CCC(N)=O)NC(=O)[C@H](CCCNC(=N)N)NC(=O)[C@H](CCCNC(=N)N)NC(=O)[C@H](CCCCN)NC(=O)[C@H](CCCCN)NC(=O)[C@H](CCCNC(=N)N)NC(=O)CN)C(C)C)C(=O)N[C@@H](CC(=O)O)C(=O)N1CCC[C@H]1C(N)=O` [F11P21, GRKKRRQRRRPPQ-βA-VKKRRLDP] (H-GRKKRRQRRRPPQ[βAla]VKKRRLDP-NH2; N-terminus and C-terminus assumed), which IC50 is on record?
Its IC50 is 668 µM.

`N=C(N)NCCC[C@H](NC(=O)CN)C(=O)N[C@@H](CCCCN)C(=O)N[C@@H](CCCCN)C(=O)N[C@@H](CCCNC(=N)N)C(=O)N[C@@H](CCCNC(=N)N)C(=O)N[C@@H](CCC(N)=O)C(=O)N[C@@H](CCCNC(=N)N)C(=O)N[C@@H](CCCNC(=N)N)C(=O)N[C@@H](CCCNC(=N)N)C(=O)N1CCC[C@H]1C(=O)N1CCC[C@H]1C(=O)N[C@@H](CCC(N)=O)C(=O)NCCC(=O)NCC(=O)N[C@@H](Cc1ccc(O)cc1)C(=O)N[C@@H](CCCNC(=N)N)C(=O)N[C@@H](Cc1ccc(O)cc1)C(=O)N[C@@H](CCCCN)C(=O)N[C@@H](CCCNC(=N)N)C(=O)N[C@@H](CC(=O)O)C(=O)N1CCC[C@H]1C(N)=O` [F11P20, GRKKRRQRRRPPQ-βA-GYRYKRDP] (H-GRKKRRQRRRPPQ[βAla]GYRYKRDP-NH2; N-terminus and C-terminus assumed) was tested. Which IC50 did it give?
The IC50 was 305 µM.

These molecules were tested against T1, E7 oncoprotein of HPV-16 expressed in … (assay: cell-based or functional assay). Settings: not given.

For RKRSRYWP [peptide D14P165 (RKRSRYWP)], which “inhibition of CK2-mediated phosphorylation of HPV-16 E7 (in vitro phosphorylation reaction, GST-E7 substrate)” value is on record?
Its value is 85%.

How did the “inhibition of CK2-mediated phosphorylation of HPV-16 E7 (in vitro phosphorylation reaction, GST-E7 substrate)” value turn out when RKRSWYWP [peptide D15P106 (RKRSWYWP)] was run?
The value was 82%.

How did the “inhibition of CK2-mediated phosphorylation of HPV-16 E7 (in vitro phosphorylation reaction, GST-E7 substrate)” value turn out when RKRWRYWP [peptide D15P105 (RKRWRYWP)] was run?
The value was 87%.
